# Experimental data published in patent publication US9211310B2, “Use of a Chinese medicine composition in preparing medicaments for treating secondary prevention of myocardial infarction” (TASLY PHARMACEUTICAL GROUP CO., LTD, priority 2010, dated 2015).
# Test system: patients after acute myocardial infarction
# Assay: Life quality, Seattle Angina Questionnaire (SAQ), same clinical trial
# Assay type: in vivo, human
# Conditions: FAS, Follow-up
# From the text: 3508 patients who were in accordance with the diagnostic standards of AMI for 28 days to 2 years and differentiated as Qi deficiency and blood stagnation syndrome by TCM were studied. 0.5 g Chinese medicine composition prepared by the method of EXAMPLE 1 (Coded as QSYQ) was administrated half an hour after meal, 3 times per day.
# There were 19 questions in the Seattle angina questionnaire (SAQ), including 5 parts: physical limitation (PL), anginal stability (AS), anginal frequency (AF), treatment satisfaction (TS) and disease perception (DP). After being given necessary explanation by doctors, the questions were answered independently by patients.
# They included the overall survival time, angina pectoris score, TCM symptom score and life quality score, where angina pectoris score, TCM symptom score and life quality score were evaluated at randomization, in 1st, 3rd, 6th, 9th, 12th month after treatment and 18th month after follow-up.
# All evaluation results of SAQ were described during the period of observation, and Wilcoxon rank sum test was used for inter-group comparison.
# The evaluation results in the SAQ were depicted in different observations, and inter-group comparison was tested by Wilcoxon Rank-sum test.
# [1] = second line headed Not limited (r60)
smiles,measurement,setting,value
"CC(=O)Oc1ccccc1C(=O)O [Control group, aspirine]","SAQ 7th question, Mostly satisfied: number of patients",,908
same,"SAQ 7th question, Partly satisfied: % of patients",,(6.68%)
same,"SAQ 7th question, Partly satisfied: number of patients",,97
same,"SAQ Question 1-1 Mildly limited, number of patients",,6
same,"SAQ Question 1-1 Mildly limited, percent of patients",,(0.42%)
same,"SAQ Question 1-1 Moderately limited, number of patients",,1
same,"SAQ Question 1-1 Moderately limited, percent of patients",,(0.07%)
same,"SAQ Question 1-1 Not limited, number of patients",,1386
same,"SAQ Question 1-1 Not limited, percent of patients",,(95.98%)
same,"SAQ Question 1-1 Other reasons, number of patients",,5
same,"SAQ Question 1-1 Other reasons, percent of patients",,(0.35%)
same,"SAQ Question 1-1 Severely limited, number of patients",,1
same,"SAQ Question 1-1 Severely limited, percent of patients",,(0.07%)
same,"SAQ Question 1-1 Slightly limited, number of patients",,45
same,"SAQ Question 1-1 Slightly limited, percent of patients",,(3.12%)
same,"SAQ Question 1-2 Mildly limited, number of patients",,8
same,"SAQ Question 1-2 Mildly limited, percent of patients",,(0.55%)
same,"SAQ Question 1-2 Moderately limited, number of patients",,0
same,"SAQ Question 1-2 Moderately limited, percent of patients",,(0.00%)
same,"SAQ Question 1-2 Not limited, number of patients",,1370
same,"SAQ Question 1-2 Not limited, percent of patients",,(94.88%)
same,"SAQ Question 1-2 Severely limited, number of patients",,2
same,"SAQ Question 1-2 Severely limited, percent of patients",,(0.14%)
same,"SAQ Question 1-2 Slightly limited, number of patients",,57
same,"SAQ Question 1-2 Slightly limited, percent of patients",,(3.95%)
same,"SAQ Question 1-6: Mildly limited, patients (%)",,(11.47%)
same,"SAQ Question 1-6: Moderately limited, patients (%)",,(9.24%)
same,"SAQ Question 1-6: Not limited, patients (%)",,(42.11%)
same,"SAQ Question 1-6: Other reasons, patients (%)",,(0.83%)
same,"SAQ Question 1-6: Severely limited, patients (%)",,(2.22%)
same,"SAQ Question 1-6: Slightly limited, patients (%)",,(34.12%)
same,"SAQ Question 1-7: Mildly limited, patients (%)",,(22.01%)
same,"SAQ Question 1-7: Moderately limited, patients (%)",,(6.75%)
same,"SAQ Question 1-7: Not limited, patients (%)",,(22.08%)
same,"SAQ Question 1-7: Other reasons, patients (%)",,(2.53%)
same,"SAQ Question 1-7: Severely limited, patients (%)",,(11.67%)
same,"SAQ Question 1-7: Slightly limited, patients (%)",,(34.95%)
same,"SAQ Question 1-8: Mildly limited, patients (%)",,(25.02%)
same,"SAQ Question 1-8: Moderately limited, patients (%)",,(11.91%)
same,"SAQ Question 1-8: Not limited, patients (%)",,(15.02%)
same,"SAQ Question 1-8: Other reasons, patients (%)",,(3.19%)
same,"SAQ Question 1-8: Severely limited, patients (%)",,(14.74%)
same,"SAQ Question 1-8: Slightly limited, patients (%)",,(30.12%)
same,"SAQ Question 1-2 Not limited, number of patients",[1],7
same,"SAQ Question 1-2 Not limited, percent of patients",[1],(0.48%)
same,"SAQ 2nd question: Clearly increased, % of cases",,(0.21%)
same,"SAQ 2nd question: Clearly increased, cases",,3
same,"SAQ 2nd question: Clearly reduced, % of cases",,(27.82%)
same,"SAQ 2nd question: Clearly reduced, cases",,402
same,"SAQ 2nd question: Same, % of cases",,(39.24%)
same,"SAQ 2nd question: Same, cases",,567
same,"SAQ 2nd question: Slightly increased, % of cases",,(7.40%)
same,"SAQ 2nd question: Slightly increased, cases",,107
same,"SAQ 2nd question: Slightly reduced, % of cases",,(25.33%)
same,"SAQ 2nd question: Slightly reduced, cases",,366
same,"SAQ 3rd question: 1-2 times per week, % of cases",,(25.33%)
same,"SAQ 3rd question: 1-2 times per week, cases",,366
same,"SAQ 3rd question: 1-3 times per day, % of cases",,(7.40%)
same,"SAQ 3rd question: 1-3 times per day, cases",,107
same,"SAQ 3rd question: <1 time per week, % of cases",,(27.82%)
same,"SAQ 3rd question: <1 time per week, cases",,402
same,"SAQ 3rd question: No onset, % of cases",,(0.00%)
same,"SAQ 3rd question: No onset, cases",,0
same,"SAQ 3rd question: ≧3 times per week, % of cases",,(39.24%)
same,"SAQ 3rd question: ≧3 times per week, cases",,567
same,"SAQ 3rd question: ≧4 times per day, % of cases",,(0.21%)
same,"SAQ 3rd question: ≧4 times per day, cases",,3
same,"SAQ Question 1-3: Mildly limited, number of patients",,30
same,"SAQ Question 1-3: Mildly limited, percent of patients",,(2.08%)
same,"SAQ Question 1-3: Moderately limited, number of patients",,6
same,"SAQ Question 1-3: Moderately limited, percent of patients",,(0.42%)
same,"SAQ Question 1-3: Not limited, number of patients",,1206
same,"SAQ Question 1-3: Not limited, percent of patients",,(83.58%)
same,"SAQ Question 1-3: Other reasons, number of patients",,9
same,"SAQ Question 1-3: Other reasons, percent of patients",,(0.62%)
same,"SAQ Question 1-3: Severely limited, number of patients",,2
same,"SAQ Question 1-3: Severely limited, percent of patients",,(0.14%)
